Here are results for 89 compounds from a melting point compilation (Tetko et al.; mined from patent text by program, amines drawn as free bases though some values may be those of a salt).

Where only a bound is given, the exact number is not on record here.

`CN1CCN(CCCCCNc2ncc3cc(-c4c(Cl)cccc4Cl)c(=O)n(C)c3n2)CC1` displayed a melting point of 110 to 112 °C.

`Cc1nc(C)c(C(=O)CBr)[nH]1` displayed a melting point of 128 to 132 °C.

In turn, `CCn1cc(C(=O)O)c(=O)c2cc(F)c(N3CCN(CCO)CC3)c(F)c21` yielded a melting point of 225 to 228 °C.

The compound `CN(CCOc1ccc(CC2SC(=O)NC2=O)cc1)C(=O)c1ccccc1` (centres undefined) came in with a melting point of 139 to 142 °C.

Take `COc1cc(N)ccc1NNC=O`: the melting point was in the range of 113 to 116 °C.

As for `Cc1c(Cc2cccc(C(F)(F)F)c2)sc2c(-c3cc(C(N)=O)ccn3)cccc12`, the melting point fell in the range of 193 to 194 °C.

Consider `O=[N+]([O-])c1ccc(NS(=O)(=O)C(F)(F)F)c(OC2CCCCC2)c1`, for which the melting point fell in the range of 93.5 to 95 °C.

As to `COc1ccc(-c2cc(F)cc3c2NC(CN)CO3)c(Cl)c1` (centres undefined), the melting point came to 84 °C.

In turn, `CCCNC(=O)C1Cc2c([nH]c3ccccc23)C(c2ccc3c(c2)OCO3)N1C(C)=O` (centres undefined) registered a melting point of 163 to 165 °C.

`Cc1nc[nH]c1CSCCN=C(NC#N)NCCc1c[nH]cn1` gave a melting point of 170 to 171 °C.

`COc1cc(Nc2nccc(-c3ccc(N4CCN(CCCN5C(=O)c6ccccc6C5=O)CC4)nc3)n2)cc(OC)c1OC` showed a melting point of 105 to 106 °C.

`CC(C)NS(=O)(=O)c1cccc(NC(=O)c2cnn3c(C(F)F)cc(-c4ccc(C(F)(F)F)cc4)nc23)c1` came in with a melting point of 229 °C.

Take `CC1CC2C(=CCC3(C)C2CCC3(O)C(=O)CO)C2(C)C=CC(=O)C=C12` (centres undefined): the melting point fell in the range of 204 to 206 °C.

Compound `CC(=O)N1C(=O)c2ccccc2N(C(C)=O)C1C(Cl)(Cl)Cl` (centres undefined) gave a melting point of 152 to 154 °C.

In the case of `CS(=O)(=O)C(=[N+]=[N-])S(C)(=O)=O`, the melting point was in the range of 120 to 124 °C.

Consider `CC1=Nc2ccccc2CC(c2ccncc2)N1C` (centres undefined), for which the melting point is 159 to 161 °C.

Turning to `O=C(COc1ccccc1)N[C@H]1C(=O)N[C@H]1CO` (relative stereo), the melting point lay within 153 to 154 °C.

Compound `c1cc(CN2CCOCC2)cc(-n2cnc3cc(-c4ccoc4)cnc32)c1` gave a melting point of 182 to 184 °C.

`O=C(O)COCCN(C1CC1)S(=O)(=O)c1ccccc1Cl` showed a melting point of 115 °C.

The compound `CC(=O)N1CCN(Cc2sccc2S(=O)(=O)N(C)c2cccc3cc(-c4nccs4)[nH]c23)CC1` had a melting point of 242 °C.

With `Cc1oc(Cl)nc1-c1ccc(Cl)cc1Cl`, the melting point came to 78 °C.

For `C#Cc1ccc2c(c1)C(c1ccccc1)=NC(C)c1c(C(=O)OCC)ncn1-2` (centres undefined), the melting point is 197 to 199 °C.

In turn, `O=C1NCCNN1c1cc(C(F)(F)F)cc(Cl)n1` registered a melting point of 191 to 192 °C.

As for `Cc1cc(-c2ccc(C(F)(F)F)cc2)nc(-c2ccc(C(=O)O)cc2)n1`, the melting point was 272 to 275 °C.

Compound `C[C@H]1[C@H](N(C)C(=O)C(F)(F)F)CN1c1c(F)cc2c(=O)c(C(=O)O)cn(C3CC3)c2c1F` (relative stereo) registered a melting point of 246 to 249 °C.

`N#Cc1cc(C#N)cc(Oc2c(C3CC3)nn(CCO)c2C2CC2)c1` had a melting point of 115 to 117 °C.

Turning to `CNC(=O)CCC(=O)c1c(OC)cccc1OC`, the melting point was found to be 134 °C.

As for `OCCCCCNc1nccc2cc3c(cc12)OCO3`, the melting point lay within 132 to 134 °C.

As to `COc1cc(OCc2ccccn2)ccc1/C=C/c1cc(/C=C/c2c[nH]c3ccccc23)n[nH]1`, the melting point was 112 to 116 °C.

On to `C=CCNC(=O)NC(=O)c1c(Cl)cccc1[Si](C)(C)C`, for which the melting point lay in the range of 68 to 71 °C.

Consider `CN1C(=O)Cc2ccccc2C1=O`, for which the melting point is 113 to 115 °C.

In the case of `O=C(O)Cc1ccc(SCc2ccccc2C(=O)O)cc1`, the melting point stood at 169 °C.

Regarding `CS(=O)(=O)c1ccc(-n2nc(C(F)(F)F)nc2-c2ccc(Br)cc2)nn1`, the melting point fell in the range of 174 to 181 °C.

The compound `CS(=O)(=O)c1ccc(C[C@@H](N)[C@H](O)C(=O)C2(C(=O)O)CC2N)cc1` (some centres undefined) showed a melting point of 256 to 258 °C.

Compound `CCCc1c(OCC2(Sc3ccc(C(=O)CCC(=O)O)cc3)CCCCC2O)ccc(C(C)=O)c1O` (centres undefined) came in with a melting point of 65 to 67 °C.

For `O=C(c1ccccc1)N(CC(=O)N1c2ccccc2N(Cc2ccccc2)C(=O)[C@H]2CCC[C@H]21)Cc1ccccc1` (relative stereo), the melting point was 166 to 168 °C.

`C=CCNC(=S)Cc1ccccn1` had a melting point of 67 to 68 °C.

`Cc1cnc(CNC(=O)c2sc(-n3cnn(Cc4ccc(F)cc4)c3=O)cc2C)cn1` had a melting point of 189 to 191 °C.

`Cc1nc2cc(Cl)ccc2c2ccccc12` returned a melting point of 129 to 131 °C.

The compound `CCCCNC(=O)OC1c2cc(Cl)ccc2C(=O)N1c1ccc2ccc(Cl)nc2n1` (centres undefined) showed a melting point of 228 to 230 °C.

Turning to `Nn1c(C2CC2)cc(-c2ccc(C(F)(F)F)cc2)cc1=O`, the melting point stood at 132 °C.

The compound `CS(=O)(=O)c1ccc(-c2cnn(CC(F)(F)F)c(=O)c2SC2CCCC2)cc1` yielded a melting point of 149 to 151 °C.

Regarding `CCOc1cccc(-n2nc(C)c3c(O)c(C(=O)c4ccccc4)cnc32)n1`, the melting point lay in the range of 160 to 162 °C.

The compound `CC(Oc1ccc(F)cc1F)(C(=O)Nc1nccs1)c1ccc(S(C)(=O)=O)cc1` (centres undefined) had a melting point of 89 to 90 °C.

Regarding `CC1(C)COC(C(=O)/C=C/[C@@H]2[C@H]3CC(=O)O[C@H]3C[C@H]2OC(=O)c2ccccc2)OC1`, the melting point is 141 °C.

Compound `OCc1ccc2[nH]cc(CCCCN3CC=C(c4ccccc4)CC3)c2c1` registered a melting point of 162 to 164 °C.

In turn, `Cc1ccc2nc3c(nc2c1)SC(C#N)=C(C#N)S3` showed a melting point of 213 to 215 °C.

In the case of `COCCO[C@H]1c2ccn3c(C)c(C)nc3c2N[C@@H](c2ccccc2)[C@@H]1O`, the melting point was in the range of 130 to 131 °C.

`CCCCCCCCc1ccc(OC2=CC(=O)OC2O)cc1` (centres undefined) showed a melting point of 59 to 61 °C.

`Cc1[nH]cnc1CSCCN=CNC#N` showed a melting point of 168 to 170 °C.

In the case of `CS(=O)(=O)Nc1cc(F)cc(F)c1`, the melting point came to 121 °C.

`CCN(CC)CC#CCCC(=O)C(O)(c1ccccc1)C1CCCC1` (centres undefined) came in with a melting point of 128 to 129 °C.

Take `COC(=O)[C@H](CC1=CCC(N)(O)C=C1)NC(=O)c1ccccc1` (some centres undefined): the melting point worked out at 170 °C.

For the compound `COC(=O)Cc1ccccc1Cc1ccccc1C(=O)O`, the melting point lay within 121 to 123 °C.

With `CCN(CC)CC(=C1NCCCS1)[N+](=O)[O-]`, the melting point lay within 68 to 69 °C.

In turn, `CN(CCOc1ccc(CC(S)C(=O)O)cc1)c1nc2ccccc2o1` (centres undefined) yielded a melting point of 154 to 156 °C.

For the compound `O=C(O)CNc1csc2ccccc12`, the melting point lay within 195 to 198 °C.

In the case of `O=c1c2c(Cc3ccccc3Cl)n[nH]c2c2cccnc2n1-c1cccc(C(F)(F)F)c1`, the melting point is 276 to 278 °C.

`COC1=CC(=O)[C@H](C(=O)O[C@@H]2C[C@H](C)CC[C@H]2C(C)C)[C@@H](C)C1`: the melting point is 78 to 80 °C.

`CCN(C)C(N)=C(C#N)C(N)=S` yielded a melting point of 121 to 124 °C.

The compound `Clc1nccc(Oc2ccc3[nH]ccc3c2)n1` registered a melting point of 169 to 176 °C.

In the case of `CN1CCN(c2c(F)cc3c(=O)c(C(=O)O)cn(-c4ccc(O)cc4)c3c2F)CC1`, the melting point was over 300 °C.

As to `CC(NC(C)CN(CC(C)NC(C)=C1C(=O)CC(C)(C)CC1=O)C(=O)/C=C\C(=O)O)=C1C(=O)CC(C)(C)CC1=O` (centres undefined), the melting point is 68 to 70 °C.

Turning to `COC(=O)COc1cccnc1Br`, the melting point was in the range of 63 to 64 °C.

Take `CC(=O)c1cc(C)cc(Br)c1O`: the melting point was 81 to 82 °C.

For the compound `COC(=O)c1ccc(Cc2cc3cc(Cl)ccc3n2S(=O)(=O)c2ccc(C(C)C)cc2)cc1F`, the melting point was found to be 127 °C.

`Cc1cn(NCCCc2ccncc2F)c2ccc(O)cc12` registered a melting point of 157 to 160 °C.

Regarding `COC(C)(C)OCC(C)C1CCC2C3C=CC4=CC(=O)C5OC5C4(C)C3CCC12C` (centres undefined), the melting point lay within 150 to 151 °C.

The compound `O=C(CCl)Nc1csc(Br)n1` registered a melting point of 146 to 148 °C.

Take `CC(C)(C)OC(=O)n1ccc2cnccc21`: the melting point is 65 °C.

For the compound `CCc1nccn2c(-c3ccnc(NCC(C)(C)O)n3)c(-c3ccc(F)cc3F)nc12`, the melting point is 164 to 165 °C.

In turn, `N#CC1=C(c2cc3ccccc3s2)Nc2n[nH]cc2C1c1cccc2nonc12` (centres undefined) came in with a melting point of 220 °C.

`CC(C)OC(=O)c1cc(NC(=S)OC(C)C)ccc1Cl` had a melting point of 89 °C.

Turning to `O=C(O)C1=Cc2cc(SC(F)(F)F)ccc2SC1C(F)(F)F` (centres undefined), the melting point is 129 to 132 °C.

With `CCCc1nc2c(N)nc3ccccc3c2n1CCCCCS(C)(=O)=O`, the melting point lay in the range of 179 to 181 °C.

As for `CC(C)(O)CCCCC(C)(C)O`, the melting point was 87 °C.

With `COc1cc2c(cc1OC)CN(CCc1cccc(NC(=O)c3cccc4c(=O)c5cccc(F)c5[nH]c34)c1)CC2`, the melting point is 178 °C.

In the case of `Cc1cc(C)c(C)c(-c2cc3cnc(N)nc3nc2N)c1C`, the melting point fell in the range of 327 to 331 °C.

The compound `ON=C(Cc1ccc(Cl)cc1)c1ccc(Cl)cc1Cl` showed a melting point of 91 °C.

For the compound `CCCCCC[Si]1(CCCCCC)C([Si](C)(C)C)=C(c2ccccc2)C(c2ccccc2)=C1[Si](C)(C)C`, the melting point worked out at 81 °C.

Take `COCCOc1ccc(CCCOC(=O)NS(=O)(=O)NCCC(C)C)c(Oc2ncc(C(F)(F)F)cc2Cl)c1`: the melting point fell in the range of 123 to 124 °C.

Turning to `COc1ccc(-c2nnn(-c3ccc(C(F)(F)F)cc3Cl)c2CBr)cc1`, the melting point fell in the range of 152 to 154 °C.

`CC(=O)Nc1cc(O)c(C(=O)O)cc1NC(=N)N` registered a melting point of 334 to 357 °C.

`COCCOc1nc(Nc2cccc(NS(C)(=O)=O)c2)nc2[nH]cnc12` yielded a melting point of 201 to 204 °C.

For the compound `CCCc1c(O)c(C(C)=O)cc2c(C)cc(C(=O)O)nc12`, the melting point was 125 to 127 °C.

As to `Nc1cccc(S(=O)(=O)NCc2ccncc2)c1`, the melting point worked out at 139 °C.

As for `ClC(Cl)(Cl)C1NCC(c2ccccc2)O1` (centres undefined), the melting point fell in the range of 58 to 64 °C.

`CN(C)c1ccc(C2(c3ccc(N(C)C)cc3N(C)C)OC(=O)c3cc(N(C)C)ccc32)cc1` (centres undefined) yielded a melting point of 182 to 185 °C.

On to `CC(C)(C)ON(O)C(=O)C(C)(C)CSc1ccc(Oc2ccc(Cl)cn2)cc1`, for which the melting point is 90.8 to 91.9 °C.

For orientation: melting point means the temperature, or range, at which the solid turns liquid.
